Source: US9315505B2, “Heterocyclic compounds and uses thereof” (INTELLIKINE LLC, priority 2009, dated 2016)
pEC50: −log10 of the molar value.

Assays:
PI3K δ = target: T1, PI3K δ (Homo sapiens, UniProt O00329); test: In vitro IC50, PI3K δ (p110δ/p85α inhibition assay); type: biochemical; conditions: in vitro kinase assay; read-out: IC50(nM) PI3K δ
T1 construct: purchased Upstate
Procedure: (§1) IC50 values are measured using either a standard TLC assay for lipid kinase activity (described below) or a high-throughput membrane capture assay. Kinase reactions are performed by preparing a reaction mixture containing kinase, inhibitor (2% DMSO final concentration), buffer (25 mM HEPES, pH 7.4, 10 mM MgCl2), and freshly sonicated phosphatidylinositol (100 μg/ml). Reactions are initiated by the addition of ATP containing 10 μCi of γ-32P-ATP to a final concentration 10 or 100 μM and allowed to proceed for 5 minutes at room temperature. For TLC analysis, reactions are then terminated by the addition of 105 μl 1N HCl followed by 160 μl CHCl3:MeOH (1:1). The biphasic mixture is vortexed, briefly centrifuged, and the organic phase is transferred to a new tube using a gel loading pipette tip precoated with CHCl3. This extract is spotted on TLC plates and developed for 3-4 hours in a 65:35 solution of n-propanol:1M acetic acid. The TLC plates are then dried, exposed to a phosphorimager screen (Storm, Amersham), and quantitated.
(§2) Other commercial kits or systems for assaying PI3-K activities are available. The commercially available kits or systems can be used to screen for inhibitors and/or agonists of PI3-Ks including but not limited to PI 3-Kinase α, β, δ, and γ. An exemplary system is PI 3-Kinase (human) HTRF™ Assay from Upstate. […] Briefly, the assay is a time resolved FRET assay that indirectly measures PIP3 product formed by the activity of a PI3-K. The kinase reaction is performed in a microtitre plate (e.g., a 384 well microtitre plate). The total reaction volume is approximately 20 ul per well. In the first step, each well receives 2 ul of test compound in 20% dimethylsulphoxide resulting in a 2% DMSO final concentration. Next, approximately 14.5 ul of a kinase/PIP2 mixture (diluted in 1× reaction buffer) is added per well for a final concentration of 0.25-0.3 ug/ml kinase and 10 uM PIP2. The plate is sealed and incubated for 15 minutes at room temperature. To start the reaction, 3.5 ul of ATP (diluted in 1× reaction buffer) is added per well for a final concentration of 10 uM ATP. The plate is sealed and incubated for 1 hour at room temperature. The reaction is stopped by adding 5 ul of Stop Solution per well and then 5 ul of Detection Mix is added per well. The plate is sealed, incubated for 1 hour at room temperature, and then read on an appropriate plate reader. Data is analyzed and IC50s are generated using GraphPad Prism 5.

PI3K γ = target: T2, PI3K γ (Homo sapiens, UniProt P48736); test: In vitro IC50, PI3K γ (p110γ inhibition assay); type: biochemical; conditions: in vitro kinase assay
T2 construct: purchased Sigma
Procedure: as §1, with “Class I PI3-Ks can be either purchased (p110α/p85α, p110β/p85α, p110δ/p85α from Upstate, and p110γ from Sigma) or expressed as previously described (Knight et al., 2004). IC50” for “IC50”, “quantitated. For each compound, kinase activity is measured at 10-12 inhibitor concentrations representing two-fold dilutions from the highest concentration tested (typically, 200 μM).” for “quantitated.”
as §2

PI3K α = target: T3, PI3K α (Homo sapiens, UniProt P42336); test: In vitro IC50, PI3K α (p110α/p85α inhibition assay); type: biochemical; conditions: in vitro kinase assay; read-out: IC50(nM) PI3K α
T3 construct: purchased Upstate
Procedure: as §1, §2

Balb/c splenic B cells = test: B cell activation and proliferation assay (Alamar Blue); type: cell-based; conditions: Mus musculus, read-out: B cell proliferation EC50
Procedure: The ability of one or more subject compounds to inhibit B cell activation and proliferation is determined according to standard procedures known in the art. For example, an in vitro cellular proliferation assay is established that measures the metabolic activity of live cells. The assay is performed in a 96 well microtiter plate using Alamar Blue reduction. Balb/c splenic B cells are purified over a Ficoll-Paque™ PLUS gradient followed by magnetic cell separation using a MACS B cell Isolation Kit (Miletenyi). Cells are plated in 90 ul at 50,000 cells/well in B Cell Media (RPMI+10% FBS+Penn/Strep+50 uM bME+5 mM HEPES). A compound disclosed herein is diluted in B Cell Media and added in a 10 ul volume. Plates are incubated for 30 min at 37 C and 5% CO2 (0.2% DMSO final concentration). A 50 ul B cell stimulation cocktail is then added containing either 10 ug/ml LPS or 5 ug/ml F(ab′)2 Donkey anti-mouse IgM plus 2 ng/ml recombinant mouse IL4 in B Cell Media. Plates are incubated for 72 hours at 37° C. and 5% CO2. A volume of 15 uL of Alamar Blue reagent is added to each well and plates are incubated for 5 hours at 37 C and 5% CO2. Alamar Blue fluoresce is read at 560Ex/590Em, and IC50 or EC50 values are calculated using GraphPad Prism 5.

T1 sequence (O00329 whole entry): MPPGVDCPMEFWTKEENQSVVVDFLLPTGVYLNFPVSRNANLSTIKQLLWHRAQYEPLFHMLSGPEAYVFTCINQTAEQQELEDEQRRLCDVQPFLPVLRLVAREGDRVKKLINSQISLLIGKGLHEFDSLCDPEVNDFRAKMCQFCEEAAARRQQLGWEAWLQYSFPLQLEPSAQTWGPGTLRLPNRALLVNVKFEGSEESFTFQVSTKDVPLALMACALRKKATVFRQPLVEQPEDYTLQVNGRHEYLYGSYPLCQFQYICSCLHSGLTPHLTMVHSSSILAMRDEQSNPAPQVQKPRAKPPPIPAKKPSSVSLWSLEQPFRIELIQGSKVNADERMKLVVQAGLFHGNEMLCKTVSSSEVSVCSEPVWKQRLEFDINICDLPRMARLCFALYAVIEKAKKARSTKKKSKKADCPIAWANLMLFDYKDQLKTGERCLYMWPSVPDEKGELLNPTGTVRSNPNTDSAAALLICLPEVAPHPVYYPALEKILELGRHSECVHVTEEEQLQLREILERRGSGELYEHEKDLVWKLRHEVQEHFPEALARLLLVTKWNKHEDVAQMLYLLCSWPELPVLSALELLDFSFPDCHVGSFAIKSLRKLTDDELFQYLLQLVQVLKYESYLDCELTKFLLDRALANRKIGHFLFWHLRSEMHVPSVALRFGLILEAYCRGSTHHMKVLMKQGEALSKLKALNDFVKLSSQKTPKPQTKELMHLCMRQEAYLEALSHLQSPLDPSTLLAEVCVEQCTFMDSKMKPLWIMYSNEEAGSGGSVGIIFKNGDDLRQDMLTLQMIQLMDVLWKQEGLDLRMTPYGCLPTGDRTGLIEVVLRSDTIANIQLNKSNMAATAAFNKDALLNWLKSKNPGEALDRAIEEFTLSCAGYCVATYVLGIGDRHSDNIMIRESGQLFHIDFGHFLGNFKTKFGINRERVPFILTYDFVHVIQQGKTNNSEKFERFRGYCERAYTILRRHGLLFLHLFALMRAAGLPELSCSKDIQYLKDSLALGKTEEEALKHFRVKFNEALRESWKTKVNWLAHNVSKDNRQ
T1 sequence (P27986 whole entry partner): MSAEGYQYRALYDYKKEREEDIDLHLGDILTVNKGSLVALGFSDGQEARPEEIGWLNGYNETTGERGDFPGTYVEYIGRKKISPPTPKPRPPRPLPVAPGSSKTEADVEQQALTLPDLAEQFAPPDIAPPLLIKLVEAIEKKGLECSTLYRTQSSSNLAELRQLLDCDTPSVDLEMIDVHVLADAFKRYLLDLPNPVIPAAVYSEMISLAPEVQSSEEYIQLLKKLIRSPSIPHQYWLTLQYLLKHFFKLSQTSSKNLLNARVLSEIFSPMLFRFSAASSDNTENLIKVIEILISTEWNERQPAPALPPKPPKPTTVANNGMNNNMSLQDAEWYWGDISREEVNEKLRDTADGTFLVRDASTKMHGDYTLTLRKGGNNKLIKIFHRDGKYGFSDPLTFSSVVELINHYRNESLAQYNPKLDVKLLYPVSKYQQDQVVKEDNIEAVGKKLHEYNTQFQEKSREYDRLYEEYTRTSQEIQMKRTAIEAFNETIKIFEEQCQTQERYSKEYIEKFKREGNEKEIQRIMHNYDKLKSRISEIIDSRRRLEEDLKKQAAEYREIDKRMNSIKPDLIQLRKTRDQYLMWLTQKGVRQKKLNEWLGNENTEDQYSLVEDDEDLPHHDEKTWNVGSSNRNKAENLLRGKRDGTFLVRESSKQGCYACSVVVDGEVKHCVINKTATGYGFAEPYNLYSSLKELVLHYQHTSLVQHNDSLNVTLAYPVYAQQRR
T3 sequence (P42336 whole entry): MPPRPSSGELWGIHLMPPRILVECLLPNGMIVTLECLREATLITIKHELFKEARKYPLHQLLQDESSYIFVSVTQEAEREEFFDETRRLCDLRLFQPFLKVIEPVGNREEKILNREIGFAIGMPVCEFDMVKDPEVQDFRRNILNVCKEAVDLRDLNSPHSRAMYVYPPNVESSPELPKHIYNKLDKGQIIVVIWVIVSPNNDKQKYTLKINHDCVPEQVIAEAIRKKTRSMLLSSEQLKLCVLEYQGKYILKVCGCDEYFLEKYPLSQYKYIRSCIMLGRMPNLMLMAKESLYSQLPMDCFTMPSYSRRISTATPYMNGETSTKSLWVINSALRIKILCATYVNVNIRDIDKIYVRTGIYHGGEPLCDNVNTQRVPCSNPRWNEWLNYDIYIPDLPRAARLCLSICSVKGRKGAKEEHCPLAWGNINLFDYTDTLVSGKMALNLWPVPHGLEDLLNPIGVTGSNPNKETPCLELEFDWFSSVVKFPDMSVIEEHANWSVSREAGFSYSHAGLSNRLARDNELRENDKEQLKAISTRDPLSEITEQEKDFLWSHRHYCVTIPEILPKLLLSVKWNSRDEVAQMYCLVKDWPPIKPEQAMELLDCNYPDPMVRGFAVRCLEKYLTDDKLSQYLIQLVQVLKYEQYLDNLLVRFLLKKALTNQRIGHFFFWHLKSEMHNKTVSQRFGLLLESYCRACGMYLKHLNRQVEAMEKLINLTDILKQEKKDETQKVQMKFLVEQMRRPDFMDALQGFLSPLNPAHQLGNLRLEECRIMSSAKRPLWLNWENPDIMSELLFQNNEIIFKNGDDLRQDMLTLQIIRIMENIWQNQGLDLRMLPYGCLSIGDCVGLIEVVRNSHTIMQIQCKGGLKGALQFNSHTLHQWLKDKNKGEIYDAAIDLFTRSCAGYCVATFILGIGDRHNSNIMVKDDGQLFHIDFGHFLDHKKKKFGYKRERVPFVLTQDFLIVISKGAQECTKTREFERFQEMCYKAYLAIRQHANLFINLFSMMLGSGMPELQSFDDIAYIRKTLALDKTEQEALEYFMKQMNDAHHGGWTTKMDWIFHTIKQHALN
T3 sequence (P27986 whole entry partner): as the sequence (P27986 whole entry partner) above
T2 sequence (P48736 whole entry): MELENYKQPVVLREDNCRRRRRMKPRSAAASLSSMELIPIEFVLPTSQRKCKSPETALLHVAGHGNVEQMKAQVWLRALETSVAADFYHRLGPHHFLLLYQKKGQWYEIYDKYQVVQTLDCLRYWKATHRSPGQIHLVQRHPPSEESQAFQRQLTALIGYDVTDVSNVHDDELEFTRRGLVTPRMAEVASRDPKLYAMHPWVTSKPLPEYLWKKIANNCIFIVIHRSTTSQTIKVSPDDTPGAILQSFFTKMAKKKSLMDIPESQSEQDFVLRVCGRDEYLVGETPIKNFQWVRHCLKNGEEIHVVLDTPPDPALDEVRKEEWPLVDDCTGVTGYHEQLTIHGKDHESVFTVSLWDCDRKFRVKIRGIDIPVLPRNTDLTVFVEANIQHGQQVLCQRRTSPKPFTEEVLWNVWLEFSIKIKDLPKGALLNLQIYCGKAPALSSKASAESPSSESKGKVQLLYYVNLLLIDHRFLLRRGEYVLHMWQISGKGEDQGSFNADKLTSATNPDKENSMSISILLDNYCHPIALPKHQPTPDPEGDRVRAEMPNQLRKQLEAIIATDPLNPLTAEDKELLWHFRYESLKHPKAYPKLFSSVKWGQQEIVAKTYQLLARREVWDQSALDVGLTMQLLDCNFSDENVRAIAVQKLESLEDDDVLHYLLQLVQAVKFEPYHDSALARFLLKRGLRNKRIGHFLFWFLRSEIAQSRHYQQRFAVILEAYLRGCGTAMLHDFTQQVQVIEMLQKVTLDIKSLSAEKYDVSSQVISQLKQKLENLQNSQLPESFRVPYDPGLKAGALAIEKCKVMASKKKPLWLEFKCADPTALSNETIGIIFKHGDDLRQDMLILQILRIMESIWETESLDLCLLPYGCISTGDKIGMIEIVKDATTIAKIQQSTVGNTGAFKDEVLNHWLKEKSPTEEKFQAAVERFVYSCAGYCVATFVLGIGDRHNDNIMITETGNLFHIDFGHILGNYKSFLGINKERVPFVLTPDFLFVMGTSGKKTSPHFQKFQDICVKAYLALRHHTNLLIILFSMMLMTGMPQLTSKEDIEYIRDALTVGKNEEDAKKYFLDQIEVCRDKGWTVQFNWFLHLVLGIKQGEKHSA

| SMILES | IC50 (PI3K δ) [nM] | IC50 (PI3K γ) [nM] | IC50 (PI3K α) [nM] | pEC50 (Balb/c splenic B cells) |
| --- | --- | --- | --- | --- |
| Cc1cccc2cc(Cn3nc(-c4ccc5oc(N)nc5c4)c4c(N)ncnc43)nc(N3CCCC3)c12 [Compound 26] | < 100 | < 100 | < 1000 | > 6.00 |
| CN1CCC(Oc2nc(Cn3nc(-c4cn[nH]c4)c4c(N)ncnc43)cc3cccc(Cl)c23)CC1 [Compound 55] | < 100 | > 10000 | > 10000 | > 7.00 |
| CN(C)c1nc(Cn2nc(-c3ccc4oc(N)nc4c3)c3c(N)ncnc32)cc2ccccc12 [Compound 2] | < 100 | < 100 | < 1000 | > 6.00 |
| Nc1nc2cc(-c3nn(Cc4cc5ccccc5c(N5CCCC5)n4)c4ncnc(N)c34)ccc2o1 [Compound 1] | < 100 | < 100 | < 1000 | > 6.00 |
| Cc1cccc2cc(C(C)Nc3ncnc4[nH]cnc34)nc(CCN3CCN(S(C)(=O)=O)CC3)c12 (stereo not shown) [Compound 50] | < 100 | < 10000 | < 10000 | > 7.00 |
| Cc1cccc2cc(Cn3nc(-c4ccc5oc(N)nc5c4)c4c(N)ncnc43)nc(OC3CCN(C)CC3)c12 [Compound 5] | < 100 | < 100 | < 100 | > 7.00 |
| Cc1cccc2cc(C(C)Nc3ncnc4[nH]cnc34)nc(CCN3CCCC3)c12 (stereo not shown) [Compound 39] | < 100 | > 10000 |  | > 7.00 |
| Cc1cccc2cc(Cn3nc(-c4ccc5oc(N)nc5c4)c4c(N)ncnc43)nc(CCN3CCN(C)CC3)c12 [Compound 25] | < 100 | < 1000 | < 1000 | > 7.00 |
| Cc1cccc2cc(Cn3nc(-c4cn[nH]c4)c4c(N)ncnc43)nc(N3CCOCC3)c12 [Compound 37] | < 100 | < 10000 |  | > 7.00 |
| C[C@H](Nc1ncnc2[nH]cnc12)c1nc(N2CCCC2)c2c(Cl)cccc2n1 [Compound 92] | < 1000 | > 10000 | > 10000 |  |
| Cc1cccc2cc([C@@H](C)Nc3ncnc4[nH]cnc34)nc(OC3CCN(S(C)(=O)=O)CC3)c12 [Compound 87] | < 10000 | > 10000 | > 10000 |  |
| Cc1cccc2cc(C(C)Nc3ncnc4[nH]cnc34)nc(N3CCOCC3)c12 (stereo not shown) [Compound 44] | < 100 | < 10000 |  | > 6.00 |
| CC(Nc1ncnc2[nH]cnc12)c1cc2cccc(Cl)c2c(CCN2CCCC2)n1 (stereo not shown) [Compound 79] | < 100 | < 10000 | > 10000 |  |
| C[C@H](Nc1ncnc2[nH]cnc12)c1nc(N2CCN(S(C)(=O)=O)CC2)c2c(Cl)cccc2n1 [Compound 94] | < 1000 | < 10000 | > 10000 |  |
| C[C@H](Nc1ncnc2[nH]cnc12)c1cc2cccc(Cl)c2c(CCN2CCC(F)(F)C2)n1 [Compound 91] | < 100 | < 10000 | < 10000 |  |
| C[C@H](Nc1ncnc2[nH]cnc12)c1cc2cccc(Cl)c2c(CCN2CCCC2)n1 [Compound 90] | < 100 | < 10000 | < 10000 |  |

The next lines start with results.

| IC50 (PI3K δ) [nM] | IC50 (PI3K γ) [nM] | IC50 (PI3K α) [nM] | SMILES | pEC50 (Balb/c splenic B cells) |
| --- | --- | --- | --- | --- |
| < 100 | > 10000 | > 10000 | Cc1cccc2cc(C(C)Nc3ncnc4[nH]cnc34)nc(CCN3CCN(C)CC3)c12 (stereo not shown) [Compound 20] | > 7.00 |
| < 100 | > 10000 |  | Cc1cccc2cc(C(C)Nc3ncnc4[nH]cnc34)nc(NCCN3CCOCC3)c12 (stereo not shown) [Compound 42] | > 6.00 |
| < 100 | < 10000 |  | Cc1cccc2cc(C(C)Nc3ncnc4[nH]cnc34)nc(CCN3CCOCC3)c12 (stereo not shown) [Compound 38] | > 7.00 |
| < 100 | > 10000 | > 10000 | CCN1CCC(Oc2nc(C(C)Nc3ncnc4[nH]cnc34)cc3cccc(C)c23)CC1 (stereo not shown) [Compound 16] | > 7.00 |
| < 1000 | > 10000 | > 10000 | CC(Nc1ncnc2[nH]cnc12)c1cc2ccccc2c(OC2CCN(C(C)C)CC2)n1 (stereo not shown) [Compound 35] | > 7.00 |
| < 100 | < 100 | < 1000 | Cc1cccc2cc(Cn3nc(-c4ccc5oc(N)nc5c4)c4c(N)ncnc43)nc(N3CCN(C)CC3)c12 [Compound 17] | > 7.00 |
| < 100 | < 10000 | < 10000 | Cc1cccc2cc(Cn3nc(-c4cn[nH]c4)c4c(N)ncnc43)nc(OC3CCN(C(C)C)CC3)c12 [Compound 13] | > 7.00 |
| < 100 | < 10000 | > 10000 | C[C@H](Nc1ncnc2[nH]cnc12)c1cc2cccc(Cl)c2c(N2CCCC2)n1 [Compound 63] | > 6.00 |
| < 100 | > 10000 |  | CCN1CCC(COc2nc(C(C)Nc3ncnc4[nH]cnc34)cc3cccc(C)c23)CC1 (stereo not shown) [Compound 46] | > 7.00 |
| < 100 | < 100 |  | Cc1cccc2cc(Cn3nc(-c4ccc5oc(N)nc5c4)c4c(N)ncnc43)nc(N3CCOCC3)c12 [Compound 36] | > 6.00 |
| < 100 | > 10000 |  | Cc1cccc2cc(C(C)Nc3ncnc4[nH]cnc34)nc(OCC3CCN(C)CC3)c12 (stereo not shown) [Compound 45] | > 7.00 |
| < 1000 | > 10000 | > 10000 | CC(Nc1ncnc2[nH]cnc12)c1cc2ccccc2c(OC2CCN(S(C)(=O)=O)CC2)n1 (stereo not shown) [Compound 53] |  |
| < 1000 | > 10000 | > 10000 | C[C@@H](Nc1ncnc2[nH]cnc12)c1cc2cccc(Cl)c2c(OC2CCN(S(C)(=O)=O)CC2)n1 [Compound 84] |  |
| < 100 | < 10000 | < 10000 | C[C@H](Nc1ncnc2[nH]cnc12)c1cc2cccc(Cl)c2c(OCC2CCN(C)CC2)n1 [Compound 73] |  |
| < 1000 | < 10000 | > 10000 | C[C@H](Nc1ncnc2[nH]cnc12)c1cc2ccccc2c(-c2cccnc2)n1 [Compound 76] |  |
| < 1000 | > 10000 | > 10000 | CC(=O)N1CCN(CCc2nc(C(C)Nc3ncnc4[nH]cnc34)cc3cccc(Cl)c23)CC1 (stereo not shown) [Compound 81] |  |
| < 100 | > 10000 | < 10000 | Cc1cccc2cc(C(C)Nc3ncnc4[nH]cnc34)nc(OCC3CCN(C(C)C)CC3)c12 (stereo not shown) [Compound 51] |  |
